# Laboratory results: a melting point compilation (Tetko et al.; mined from patent text by program, amines drawn as free bases though some values may be those of a salt)
row,Compound,melting point
1,CCOC(=O)Cn1nc2ccc(OCCCN3CCC(OC(c4ccccc4)c4ccccc4)CC3)nn2c1=O,124 to 125 °C
2,CC(C)(C)C12OOC1(c1cc3cc(O[Si](C)(C)C(C)(C)C)ccc3o1)OCC2(C)C (configuration not stated),117 to 118 °C
3,CCN(C(C)=O)c1cccc(-c2ccnc3c(Cl)cnn23)c1,157 to 159 °C
4,CCCN(CCC)C(=O)Cn1c(-c2ccc(C)s2)nc2cccnc21,125 to 127 °C
5,O=C(CCl)NC(c1ccccc1)C(O)c1ccccc1 (configuration not stated),166 to 169 °C
6,O=C(N1c2ccccc2C=Cc2ccccc21)C(F)(F)F,85 to 91 °C
7,O=C(NCCO)c1cccc(-c2cccc3c2CC(Cc2cccc(C(F)(F)F)c2)O3)c1 (configuration not stated),120 to 121 °C
8,CCCCc1oc2ccccc2c1C(=O)NCc1ccc2c(-c3ccc(Cl)cc3)c(OC(Cc3ccccc3)C(=O)O)ccc2c1 (configuration not stated),169 to 172 °C
9,O=C(Oc1ccc([N+](=O)[O-])cc1)c1cnc2cc(I)ccc2n1,228 to 230 °C
10,NC(Cc1ccccc1)C(=O)NC1N=C(c2ccccc2)c2ccccc2NC1=O (configuration not stated),208 to 210 °C
11,Cc1oc(-c2ccccc2)nc1CCC(=O)c1ccc(CC2SC(=O)NC2=O)cc1 (configuration not stated),145 to 146 °C
12,CCCNC(=O)CCCn1c(CCC)nc2c(N)nc3ccccc3c21,161 to 163 °C
13,N#CCCNC(=O)c1cccc(-c2cccn3c(=O)n(Cc4cccc(C(F)(F)F)c4)nc23)c1,217 to 219 °C
14,O=C1COCCN1c1ccc(N2C[C@@H](CI)OC2=O)cc1,154 to 157 °C
15,CSCC(=O)Nc1cc(-c2c(-c3ccc(F)c(C)c3)nc3cccnn23)ccn1,155 to 156 °C
16,O=c1c(Cl)c(N2CCC(c3ccccc3)CC2)ccn1Cc1ccc(OC(F)(F)F)cc1,169 °C
17,COc1cc2nc(N3CCc4c(cccc4-c4cnccc4N)C3)[nH]c(=O)c2cc1OC,> 300 °C
18,CCC1c2cccn2-c2cccc(C)c2N1S(=O)(=O)c1ccc(O)cc1 (configuration not stated),165 to 167 °C
19,CCOc1c(CN2CCCCC2)c2c(c3c1OC(C)(C)C3)C(c1cccc(N(S(C)(=O)=O)S(C)(=O)=O)c1)=NC(C)(C)C2,118 to 119 °C
20,COc1nc(C)nc(NC(=O)NS(=O)(=O)c2ccccc2CCC(F)(F)F)n1,157 to 158 °C
21,CCC1=c2ccccc2=NC1=O,100 to 101 °C

row,Compound,melting point
1,N=C(NCCN1CCC(Nc2nc3ccccc3n2Cc2ccc(F)cc2)CC1)N[N+](=O)[O-],147 °C
2,Cn1ccc2ccccc2c(=NO)c1=O,225 to 226 °C
3,OCCOCc1nn(Cc2ccccc2)c2ccccc12,67 to 69 °C
4,Cc1cc2[nH]c(=O)n(S(=O)(=O)c3ccc(Cl)cc3)c(=O)c2cc1C,221 to 222 °C
5,CCC(C)(C)Nc1c(NCc2cc(C)cc(C)c2)c(=O)c1=O,222 to 224 °C
6,COc1cc(Nc2c(C#N)cnc3cc4cc(OC)c(OCCN5CCN(C)CC5)cc4cc23)c(Cl)cc1C,220 to 227 °C
7,COc1ccc2cccc(CCOS(=O)(=O)c3ccccc3)c2c1,61.8 to 63 °C
8,O=C1C2CC2C(=O)N1CCC1=CCCCC1 (configuration not stated),60 to 61 °C
9,CCN(CC)C(=O)c1nc2cnn(CC)c2nc1-c1ccccc1,111 to 112 °C
10,CC(C)(C)[Si](C)(C)OCCn1ccc(N)n1,54 to 55 °C
11,CCOC(=O)CN1C(=O)C(Br)CCc2ccccc21 (configuration not stated),114 to 116 °C
12,O=c1[nH]c2ccc3c(c2[nH]1)OC(CO)CC3 (configuration not stated),240 °C
13,CCOC(=O)c1cc(C(=O)CBr)c(=O)[nH]c1C(=O)OCC,141 to 142 °C
14,CC(=O)Nc1ccc([N+]([O-])=NC#N)cc1,240 to 242 °C
15,CN1CCC(O)(c2ccccc2F)CC1,127 to 129 °C
16,CCC1(CCCCN2CCN(c3ccccn3)CC2)C(=O)Nc2ccccc21 (configuration not stated),131 to 133 °C
17,Cc1c(NC(=O)c2cccnc2NCc2ccc(=O)[nH]c2)cccc1C(F)(F)F,196 to 201 °C
18,CN(C)C1(Cc2ccccc2)CCC(O)(c2cc3ccccc3s2)CC1 (configuration not stated),128 to 131 °C
19,CCCCN(Cc1c(O)ccc2ccccc12)Cc1c(O)ccc2ccccc12,130 to 131 °C
20,Cn1ncnc1COc1nn2c(-c3ccccc3F)nnc2cc1C1CC(F)(F)C1,178 °C
21,CCCCc1oc2ccccc2c1C(=O)N(Cc1ccccc1)Cc1ccc2c(Br)c(OCC#N)ccc2c1,105 to 110 °C

# The remaining lines, values ahead:
row,melting point,Compound
1,134 °C,CC(=O)NCCOc1ccc(N)cc1O
2,118 to 120 °C,Cn1c(C(=O)c2ccc(F)cc2)cc2cc(OCc3ccccc3)ccc21
3,183 to 184 °C,CCOC(=O)c1sc(N)nc1-c1cccc(C)c1
4,58 to 59 °C,CCCCc1nn(-c2ccc(C(F)(F)F)cn2)cc1C(=O)OCC
5,146 to 148 °C,Cc1cc(C)c(C(=O)CCCCC(=O)O)c(O)c1C
6,113 °C,CC(C)Cn1nc(-c2ccc(F)c(F)c2)cc(COS(C)(=O)=O)c1=O
7,83 °C,COc1cc(C(=O)c2cccs2)cc(OC)c1OC
8,48 to 48.5 °C,CCOC(=O)c1cc(C)c(C(=O)OCC)n1C
9,63 to 66 °C,CC(C)(C)OC(=O)Nc1ccc(-c2ccccc2F)cc1NC(=O)CC(=O)c1sccc1C#N
10,205 to 207 °C,CONC(=O)COc1c(-c2ccccc2)c(=O)[nH]c2cc(Cl)ccc12
11,160 to 162 °C,Nc1ccc2c(c1)CCN(C(=O)C(F)(F)F)CC2
12,125 to 127 °C,COc1ccc(-n2nc(C(=O)CCCO)cc2-c2ccc(S(C)(=O)=O)cc2)cc1
13,278 to 280 °C,CCN1CCN(Cc2ccc(-c3nc4cc(OC)cc(OC)c4c(=O)[nH]3)cc2)CC1
14,149 to 152 °C,CC(CC(=O)O)(C(=O)O)c1ccc(F)cc1 (configuration not stated)
15,210 to 211 °C,COC(=O)c1c(C)[nH]c(-c2ccncn2)c1C(=O)OC
16,104 °C,CCOC(=O)c1cc(OC(C)=O)c2cc(OC)ccc2c1
17,166 to 167 °C,COc1ccc(C(=O)c2ccc(OCc3nc(-c4ccccc4)oc3C)cc2)c(OC(F)(F)C(=O)O)c1
18,272 to 274 °C,O=C(O)c1cccc(-c2cc([N+](=O)[O-])ccc2F)c1
19,103 to 104 °C,COc1c(Br)c(O)c(C=O)c(OC)c1Br
20,233 to 236 °C,COc1cc2nc(N)nc(-c3ccc(C)c(Br)c3Br)c2cc1OC
21,204 to 206 °C,COc1cc(C(C)C)c(Oc2cnc(N)nc2N)cc1I
22,102 to 104 °C,CCCc1cc(C)c2oc(Cc3ccc(OC)cc3)c(C)c2c1O
23,86 to 87 °C,COc1cc(C(=O)C(C)C)ccc1O
24,149 to 150 °C,CCC(CC)(CC(=O)Nc1cccc(OCc2ccc3ccccc3n2)c1)C(=O)O
25,242 to 245 °C,COc1cc2nc(N)nc(-c3cccc(Cl)c3)c2cc1OC
26,280 to 287 °C,CC(C)c1ccc2nc3ccc(C(=O)O)cn3c(=O)c2c1
27,130 to 131 °C,COc1cc2ccn(C(=O)c3ccc(-c4ccc(-c5noc(C)n5)cc4C)cc3)c2cc1OCCN(C)C
28,93 to 95 °C,CCOC(=O)c1cc(C(C)C)n(-c2ccc(Cl)cc2Cl)n1
29,99.3 to 102 °C,CCC(Br)C(=O)NOCc1ccccc1 (configuration not stated)
30,165 to 167 °C,CC(=O)CCC(=O)c1ccc(Cl)cc1
